Columns and labels:
[1] = system: synaptic GABAA receptors; experiment: Miniature inhibitory postsynaptic currents (mIPSCs) in hippocampal neurons; assay type: cell-based, rat
[2] = target: T1, recombinant Flag-tagged KCC2 (Rattus norvegicus, UniProt Q63633); experiment: Quantum dot-based single particle tracking of KCC2 membrane lateral diffusion; assay type: cell-based; details: vs DMSO
T1 construct: expressed in transfected cells; host or cells: primary rat hippocampal neurons, transfected at DIV 13-14 with Transfectin
T1 sequence (Q63633 1-1116 isoform Q63633-2): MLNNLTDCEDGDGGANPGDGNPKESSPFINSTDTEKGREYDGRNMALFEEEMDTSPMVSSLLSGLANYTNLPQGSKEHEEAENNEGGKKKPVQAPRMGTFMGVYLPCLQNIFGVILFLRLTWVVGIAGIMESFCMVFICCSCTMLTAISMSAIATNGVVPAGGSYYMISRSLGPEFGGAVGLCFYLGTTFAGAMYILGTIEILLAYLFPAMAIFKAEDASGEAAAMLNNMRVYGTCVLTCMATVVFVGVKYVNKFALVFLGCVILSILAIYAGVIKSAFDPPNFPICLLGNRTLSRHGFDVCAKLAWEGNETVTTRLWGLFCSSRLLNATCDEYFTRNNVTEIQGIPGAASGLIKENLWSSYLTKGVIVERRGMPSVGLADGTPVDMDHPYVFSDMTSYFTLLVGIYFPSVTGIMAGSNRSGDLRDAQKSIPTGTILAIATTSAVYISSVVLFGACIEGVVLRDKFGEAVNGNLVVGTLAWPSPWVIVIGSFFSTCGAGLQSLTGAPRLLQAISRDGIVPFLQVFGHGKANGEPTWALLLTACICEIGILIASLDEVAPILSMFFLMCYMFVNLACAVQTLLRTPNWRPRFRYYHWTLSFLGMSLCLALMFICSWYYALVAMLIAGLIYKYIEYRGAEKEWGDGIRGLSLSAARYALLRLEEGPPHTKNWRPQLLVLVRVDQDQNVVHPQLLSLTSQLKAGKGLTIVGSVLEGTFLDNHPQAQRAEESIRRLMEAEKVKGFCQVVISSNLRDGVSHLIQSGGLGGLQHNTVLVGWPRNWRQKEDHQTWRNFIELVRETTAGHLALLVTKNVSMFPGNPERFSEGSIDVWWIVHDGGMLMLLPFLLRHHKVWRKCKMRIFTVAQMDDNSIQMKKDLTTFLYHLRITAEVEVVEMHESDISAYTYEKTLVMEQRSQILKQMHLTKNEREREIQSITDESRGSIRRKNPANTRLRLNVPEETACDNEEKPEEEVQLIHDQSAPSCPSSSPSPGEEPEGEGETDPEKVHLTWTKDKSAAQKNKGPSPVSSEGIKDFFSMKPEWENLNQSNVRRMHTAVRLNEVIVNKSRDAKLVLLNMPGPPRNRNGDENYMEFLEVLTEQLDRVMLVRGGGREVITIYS
Experimental: For all experiments on hippocampal cultures, neurons were pre-incubated for 2 hours with either DMSO, PCPZ or CLP257 in a CO2 incubator set at 37° C. Drugs were added directly to the culture medium. For electrophysiology experiments, neurons were also recorded in presence of these drugs in the bath. For biochemistry experiments on rat hippocampo-cortical slices, slices were incubated with either DMSO (vehicle), CLP257, PCPZ, WNK463 or sodium orthovanadate for 2 hours in interface chambers set at 37° C. For human tissue experiments, slices were pre-incubated with either DMSO, CLP257 or PCPZ for 2 hours in interface chambers set at 37° C. and then also recorded in presence of these compounds.
For single-particle-tracking experiments, a previously described KCC2-Flag construct was used. […] All constructs were sequenced by Beckman Coulter Genomics (Hope End, Takeley, U.K). Neuronal transfections were performed at DIV 13-14 using Transfectin (BioRad), according to manufacturer's instructions (DNA:transfectin ratio 1 μg:3 μl), with 1-1.5 μg of plasmid DNA per 20 mm well. Experiments were performed 7-10 days post-transfection.
Neurons were stained as previously described. Briefly, cells were incubated for 6 min at 37° C. with a mouse anti-Flag antibody (mouse, 1:300, Sigma-Aldrich), washed and incubated for 6 min at 37° C. with a biotinylated Fab goat anti-mouse antibody (1:300; Jackson Immuno Research) in imaging medium. After washes, cells were incubated for 1 min with streptavidin-coated quantum dots (QDs) emitting at 655 nm (1 nM; Invitrogen) supplemented with PBS ([…]; Invitrogen) and 10% Casein (v/v) (Sigma).
Cells were imaged using an Olympus IX71 inverted microscope equipped with a 60× objective (NA 1.42; Olympus) and a 120 W Mercury lamp (X-Cite 120Q, Lumen Dynamics). QD real time recordings (integration time of 30 ms over 1200 consecutive frames) were acquired with an ImagEM EMCCD camera and MetaView software (Meta Imaging 7.7). Cells were imaged within 45 min following appropriate drugs pre-incubation.
QD tracking and trajectory reconstruction were performed with homemade Matlab routines, as described. For each imaged neuron, one or two dendritic subregions were quantified. Mean square displacement (MSD) over time plots were calculated as described and diffusion coefficients (D) were calculated by fitting the first four points without origin of the MSD vs. time curves with the equation: MSD(nτ)=4Dnτ+b, where b is a constant reflecting the spot localization accuracy. The explored area of each trajectory was defined as the MSD value of the trajectory at two different time intervals of at 0.42 and 0.45 s.

| change of KCC2 diffusion coefficient, extrasynaptic ([2]; 100 μM CLP257, 2 h) | change of KCC2 diffusion coefficient, synaptic ([2]; 100 μM CLP257, 2 h) | change of KCC2 explored area, extrasynaptic ([2]; 100 μM CLP257, 2 h) | change of KCC2 explored area, synaptic ([2]; 100 μM CLP257, 2 h) | change of KCC2 diffusion coefficient, extrasynaptic ([2]; 10 μM PCPZ, 2 h) | change of KCC2 diffusion coefficient, synaptic ([2]; 10 μM PCPZ, 2 h) | change of KCC2 explored area, extrasynaptic ([2]; 10 μM PCPZ, 2 h) | change of KCC2 explored area, synaptic ([2]; 10 μM PCPZ, 2 h) | Structure (SMILES) | mIPSCs decay time constant ([1]; 100 μM CLP257, before drug 12.36±0.75) | mIPSCs amplitude ([1]; 100 μM CLP257, before drug 42.32±3.40) | mIPSCs decay time constant ([1]; 10 μM PCPZ, before drug 10.66±0.80) | mIPSCs amplitude ([1]; 10 μM PCPZ, before drug 42.49±2.54) |
| --- | --- | --- | --- | --- | --- | --- | --- | --- | --- | --- | --- | --- |
| −20.74±4.85% | +9.39±11.21% | −25.14±2.73% | +4.93±19.40% | – | – | – | – | O=C1N=C(N2CCCCN2)S/C1=C\c1ccc(F)cc1O [CLP257, (5Z)-5-[(4-Fluoro-2-hydroxyphenyl)methylene]-2-(tetrahydro-1-(2H)-pyridazinyl)-4(5H)-thiazolone] | 12.53 ± 1.01 ms | 43.77±2.86 pA | – | – |
| – | – | – | – | −36.54±14.91% | −26.22±14.00% | −39.70±17.18% | −30.632±25.44% | CN1CCN(CCCN2c3ccccc3Sc3ccc(Cl)cc32)CC1 [PCPZ, prochlorperazine] | – | – | 10.17 ± 0.71 ms | 42.92±2.55 pA |

From patent US20240197728A1, “METHODS AND PHARMACEUTICAL COMPOSITIONS FOR TREATING REFRACTORY EPILEPSY” (INSERM (INSTITUT NATIONAL DE LA SANTÉ ET DE LA RECHERCHE …, priority 2021, published 2024)
